From patent US11612595B2, “Compositions and methods for treating rheumatoid arthritis” (Generos Biopharma Ltd., priority 2017, dated 2023)

Legend:
STAT5 [1] = target: T1, STAT5 (Homo sapiens, UniProt P42229+P51692); design: endogenous in cells; host or cells: K562 nuclear extract; details: K562 nuclear extract; cited from earlier work
T1 sequence (P42229 1-794): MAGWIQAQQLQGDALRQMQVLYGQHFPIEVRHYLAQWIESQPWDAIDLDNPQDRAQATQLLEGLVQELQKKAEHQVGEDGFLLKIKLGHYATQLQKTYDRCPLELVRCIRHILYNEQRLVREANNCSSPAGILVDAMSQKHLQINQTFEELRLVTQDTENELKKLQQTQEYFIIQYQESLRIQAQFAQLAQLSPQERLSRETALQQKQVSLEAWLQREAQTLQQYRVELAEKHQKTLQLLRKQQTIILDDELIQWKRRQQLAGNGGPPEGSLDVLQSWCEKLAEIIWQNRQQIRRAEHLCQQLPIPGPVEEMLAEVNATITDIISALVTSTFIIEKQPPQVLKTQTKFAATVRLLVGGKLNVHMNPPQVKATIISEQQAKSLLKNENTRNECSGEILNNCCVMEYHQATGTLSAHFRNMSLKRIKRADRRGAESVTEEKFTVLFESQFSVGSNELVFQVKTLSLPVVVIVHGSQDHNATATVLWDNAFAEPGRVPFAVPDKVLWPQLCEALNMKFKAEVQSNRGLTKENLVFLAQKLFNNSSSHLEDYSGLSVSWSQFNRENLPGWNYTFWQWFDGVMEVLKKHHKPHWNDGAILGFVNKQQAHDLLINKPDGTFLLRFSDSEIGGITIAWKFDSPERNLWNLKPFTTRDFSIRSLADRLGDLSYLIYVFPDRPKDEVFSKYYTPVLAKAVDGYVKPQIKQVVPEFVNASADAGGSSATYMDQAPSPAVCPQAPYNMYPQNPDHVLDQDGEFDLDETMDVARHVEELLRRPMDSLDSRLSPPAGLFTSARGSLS
T1 sequence (P51692 1-787): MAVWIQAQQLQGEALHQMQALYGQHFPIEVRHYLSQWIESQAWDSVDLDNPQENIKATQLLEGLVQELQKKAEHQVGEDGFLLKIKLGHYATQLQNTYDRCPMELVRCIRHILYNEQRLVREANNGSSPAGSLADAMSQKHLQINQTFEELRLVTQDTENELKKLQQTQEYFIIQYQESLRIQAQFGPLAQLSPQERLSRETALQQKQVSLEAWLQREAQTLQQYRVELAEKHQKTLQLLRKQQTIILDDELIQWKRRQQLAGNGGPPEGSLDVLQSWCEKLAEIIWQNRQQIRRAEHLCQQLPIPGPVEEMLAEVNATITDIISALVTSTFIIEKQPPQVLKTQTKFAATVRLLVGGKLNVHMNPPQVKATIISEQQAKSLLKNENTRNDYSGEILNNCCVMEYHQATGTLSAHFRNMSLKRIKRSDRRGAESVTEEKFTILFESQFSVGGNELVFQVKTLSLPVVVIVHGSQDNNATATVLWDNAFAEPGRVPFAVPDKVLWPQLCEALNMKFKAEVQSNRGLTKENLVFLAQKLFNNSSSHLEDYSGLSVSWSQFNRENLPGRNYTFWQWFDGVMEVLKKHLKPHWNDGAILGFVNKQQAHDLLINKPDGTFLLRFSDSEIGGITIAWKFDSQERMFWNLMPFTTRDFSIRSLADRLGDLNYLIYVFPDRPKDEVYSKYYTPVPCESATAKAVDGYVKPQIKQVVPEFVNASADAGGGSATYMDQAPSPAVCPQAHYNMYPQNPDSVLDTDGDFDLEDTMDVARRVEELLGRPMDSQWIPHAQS

[2] = test system: Chronic Myeloid Leukemia (CML) cell lines; details: cited from earlier work
AIA mouse model = AIA mouse model (mBSA-induced knee arthritis); type: in vivo, mice (C57BL/6); details: 10 mg/kg intraperitoneal
Procedure: This example describes a method of RA treatment with pimozide in a AIA mouse model. The right knees of fourteen mice (C57BL/6) were immunized with mBSA injection on the right knee to induce arthritis, while the left knees were used as control. Nine of the mice was then treated with pimozide. Specifically, pimozide was dissolved in DMSO at a concentration of 50 mg/ml, and then diluted in 30% PEG300 (Sigma) for intraperitoneal injection at 10 mg/kg dose. The remaining five mice were treated with vehicle DMSO that is diluted in 30% PEG300 for intraperitoneal injection. After 7 days, the mice were sacrificed and knees were dissected and fixed in 10% formalin and decalcified in 5% formic acid before dehydration and embedding in paraffin followed by standard hematoxylin and eosin (H&E) stain procedure.

STAT5 [3] = target: T1, STAT5; design: in Bcr-Abl+ K562 and KU812 cultures; endogenous in cells; host or cells: K562 and KU812 cells; details: 5 to 10 μM for 3 h; Bcr-Abl+ K562 and KU812 cultures; cited from earlier work
[4] = weight changes in rat AIA model; type: in vivo, rats
Procedure: FIG. 4 is a graph depicting weight changes in four groups of rat AIA models under different treatment schemes. Vehicle refers to the group of AIA model rats treated with DMSO. Therapeutic refers to the group of AIA model rats treated with pimozide (Sigma-Aldrich) 10 mg/kg in 30% PEG300 solution starting from day 13. Prophylactic refers to the group of AIA model rats treated with pimozide (Sigma-Aldrich) 10 mg/kg in 30% PEG300 solution starting from day 0. Normal refers to the group of rats without AIA model inducement.
Three groups (10 rats in each group) of female rats (age 8 weeks) were subject to AIA model induction and then to different treatment schemes. Specifically, 100 ug mBSA mixed with CFA was injected s.c. to flank near tail, and one dose of B. pertusiss was injected i.p. the next day to boost the immune reaction. The first of the three groups of rats were treated with DMSO (Vehicle). The second of the three groups of rats were treated with pimozide (Sigma-Aldrich) 10 mg/kg of body weight (same unit are used throughout this application) in 30% PEG300 solution via intraperitoneal injection with collagen injection starting from day 7 (Therapeutic). The last of the three groups of rats were treated with pimozide (Sigma-Aldrich) 10 mg/kg in 30% PEG300 solution via intraperitoneal injection either with collagen injection starting from day 0. […]

weight changes vs Vehicle ([4]; Prophylactic group, 10 mg/kg i.p. from day 0, at each time point)	weight changes vs Vehicle ([4]; Therapeutic group, 10 mg/kg i.p., at each time point)	Structure (SMILES)	STAT5/STAT5 DNA binding activity (STAT5 [1])	cell cycle arrest and apoptosis [2]	infiltration of immune cells in knee cavity (H&E staining) (AIA mouse model; after 7 days, vs vehicle)	knee diameter differences (right knee vs left knee) (AIA mouse model; vs vehicle group)	constitutive STAT5 Tyr694 phosphorylation (STAT5 [3])
		O=C(N/N=C/c1coc2ccccc2c1=O)c1cccnc1 [nicotinohydrazide, N′-((4-Oxo-4H-chromen-3-yl)methylene)nicotinohydrazide]	blocks				
No significant difference	No significant difference	O=c1[nH]c2ccccc2n1C1CCN(CCCC(c2ccc(F)cc2)c2ccc(F)cc2)CC1 [pimozide, 1-[1-[4,4-bis(4-fluorophenyl)butyl]-4-piperidinyl]-1,3-dihydro-2H-benzimidazole-2-one]		induces	reduced infiltration of immune cells	significantly smaller	inhibits
